According to the supplement of paper PMC11061612:

Legend:
[1] = system: SK-CO-1 (Colorectal Carcinoma); assay: combination Emax (second highest fraction inhibited in the dose matrix, 72 h); higher = more inhibition; extreme values may be limits of the assay
Procedure, shortened: (§1)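 Cell lines in DMEM/F12 or RPMI with 10% FBS were plated in 1536-well plates, held 24 hours at 37°C, 5% CO2, then given two-drug dose matrices for 72 hours (DMSO typically 0.2%). Viability was read by CellTiter-Glo 2.0 luminescence and scaled as inhibition from 0 (vehicle wells) to 1 (blank wells). Combination Emax is the second-highest inhibition in the matrix; Bliss excess is observed combination effect minus expected EA + EB − EA·EB, EA and EB being single-agent effects.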

[2] = system: CPC-N (Small Cell Lung Carcinoma); assay: as above
Procedure, shortened: as §1

[3] = system: SCC-4 (Oral Cavity Carcinoma); assay: as above
Procedure, shortened: as §1

[4] = system: SAT (Head and Neck Carcinoma); assay: Bliss excess, mean over the matrix (fraction); higher = more synergy
Procedure, shortened: as §1

[5] = system: DBTRG-05MG (Glioblastoma); assay: as above
Procedure, shortened: as §1

[6] = system: SiHa (Cervical Carcinoma); assay: as above
Procedure, shortened: as §1

[7] = system: ES6 (Ewing's Sarcoma); assay: as above
Procedure, shortened: as §1

[8] = system: MM1S (Plasma Cell Myeloma); assay: as above
Procedure, shortened: as §1

[9] = system: SNU-407 (Colorectal Carcinoma); assay: as above
Procedure, shortened: as §1

[10] = system: LS-1034 (Colorectal Carcinoma); assay: as above
Procedure, shortened: as §1

[11] = system: P32-ISH (Burkitt's Lymphoma); assay: as above
Procedure, shortened: as §1

[12] = system: SK-CO-1 (Colorectal Carcinoma); assay: as above
Procedure, shortened: as §1

[13] = system: IA-LM (Non-Small Cell Lung Carcinoma); assay: as above
Procedure, shortened: as §1

[14] = system: ZR-75-30 (Breast Carcinoma); assay: as above
Procedure, shortened: as §1

[15] = system: NMC-G1 (Low Grade Glioma); assay: as above
Procedure, shortened: as §1

[16] = system: NCI-H226 (Mesothelioma); assay: as above
Procedure, shortened: as §1

[17] = system: CL-11 (Colorectal Carcinoma); assay: as above
Procedure, shortened: as §1

[18] = system: SNU-423 (Hepatocellular Carcinoma); assay: as above
Procedure, shortened: as §1

[19] = system: RCC-JW (Kidney Carcinoma); assay: as above
Procedure, shortened: as §1

[20] = system: UACC-257 (Melanoma); assay: as above
Procedure, shortened: as §1
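Wherever Bliss excess, mean over the matrix is given: after 72 h of two-drug dosing.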

| SMILES | combination Emax [1] | combination Emax [2] | combination Emax [3] | Bliss excess [4] | Bliss excess [5] | Bliss excess [6] | Bliss excess [7] | Bliss excess [8] | Bliss excess [9] | Bliss excess [10] | Bliss excess [11] | Bliss excess [12] | Bliss excess [13] | Bliss excess [14] | Bliss excess [15] | Bliss excess [16] | Bliss excess [17] | Bliss excess [18] | Bliss excess [19] | Bliss excess [20] |
| --- | --- | --- | --- | --- | --- | --- | --- | --- | --- | --- | --- | --- | --- | --- | --- | --- | --- | --- | --- | --- |
| Cc1c2c(nn1C)CSCc1cc(n(C)n1)CSc1cc(c3ccccc3c1)OCCCc1c(C(=O)O)n(C)c3c-2c(Cl)ccc13 [AZD5991] + CCN(CCO)CCCOc1ccc2c(Nc3cc(CC(=O)Nc4cccc(F)c4)[nH]n3)ncnc2c1 [AZD2811] (first compound max 1 µM, 7x7, partner max 1 µM) | 0.73 | 0.835 | 0.663 | 0.101 | 0.019 | 0.0009 | 0.0337 | 0.134 | -0.034 | -0.0173 | -0.0194 | -0.0337 | 0.0059 | 0.0825 | 0.0152 | 0.0097 | -0.021 | -0.0322 | 0.0024 |  |
| NC1(C(=O)N[C@@H](CCO)c2ccc(Cl)cc2)CCN(c2ncnc3[nH]ccc23)CC1 [Capivasertib] + C[C@@H]1COCCN1C2=NC(=NC(=C2)C3(CC3)[S@](=N)(=O)C)C4=C5C=CNC5=NC=C4 [AZD6738] (first compound max 10 µM, 7x7, partner max 10 µM) | 0.668 | 0.894 | 0.558 | -0.0345 | 0.0064 | 0.0259 | -0.0479 | 0.0201 | -0.101 | -0.0782 | 0.0277 | -0.0786 | 0.008 | -0.057 |  | -0.0775 | -0.0376 | -0.0139 | -0.0713 | 0.0164 |
| NC1(C(=O)N[C@@H](CCO)c2ccc(Cl)cc2)CCN(c2ncnc3[nH]ccc23)CC1 [Capivasertib] + Cn1cnc2c(F)c(Nc3ccc(Br)cc3Cl)c(C(=O)NOCCO)cc21 [Selumetinib] (first compound max 10 µM, 7x7, partner max 10 µM) | 0.886 | 0.332 | 0.778 | 0.0768 | -0.0148 | -0.0081 | -0.0397 | 0.0712 | 0.026 | -0.0123 | 0.0288 | 0.0107 | -0.113 | -0.0071 |  | -0.063 | -0.0202 | 0.0248 | 0.0296 | -0.0402 |
| Cc1nc(Nc2ncc(C(=O)Nc3c(C)cccc3Cl)s2)cc(N2CCN(CCO)CC2)n1 [Dasatinib] + CC(=O)Nc1cccc(-n2c(=O)n(C3CC3)c(=O)c3c(Nc4ccc(I)cc4F)n(C)c(=O)c(C)c32)c1 [Trametinib] (first compound max 2 µM, 7x7, partner max 1 µM) | 0.994 | 0.0279 | 0.712 | -0.0712 | 0.0499 | -0.0082 | -0.0495 | -0.0089 | 0.0332 | -0.0302 | 0.0545 | 0.0602 | 0.117 | -0.0511 |  | 0.027 | 0.0766 | -0.047 | 0.0062 | -0.0926 |
| COc1cc2ncnc(Nc3ccc(F)c(Cl)c3)c2cc1OCCCN1CCOCC1 [Gefitinib] + CC(C)n1c(=O)n(C)c2cnc3cc(F)c(-c4ccc(OCCCN5CCCCC5)nc4)cc3c21 [AZD1390] (first compound max 10 µM, 7x7, partner max 0.3 µM) | 0.241 | 0.0984 | 0.275 | -0.0522 | -0.0482 | -0.0732 | -0.0574 | -0.0356 | -0.0783 | -0.0368 | -0.0116 | -0.0056 | -0.111 | -0.0587 |  | -0.0661 | -0.0474 | -0.0902 | -0.069 | -0.055 |
| CS(=O)(=O)CCNCc1ccc(-c2ccc3ncnc(Nc4ccc(OCc5cccc(F)c5)c(Cl)c4)c3c2)o1 [Lapatinib] + C[C@@H](Oc1cc(-c2cnn(C3CCNCC3)c2)cnc1N)c1c(Cl)ccc(F)c1Cl [Crizotinib] (first compound max 10 µM, 7x7, partner max 10 µM) | 0.94 | 0.845 | 0.913 | -0.0358 | -0.0334 | -0.0394 | -0.0437 | 0.0395 | -0.0774 | -0.0407 | 0.0037 | -0.0721 | -0.0133 | -0.0031 |  | -0.0513 | -0.0477 | -0.074 | -0.0455 | -0.0442 |
| CC(=O)c1c(C)c2cnc(Nc3ccc(N4CCNCC4)cn3)nc2n(C2CCCC2)c1=O [Palbociclib] + CC1(C)CCC(CN2CCN(c3ccc(C(=O)NS(=O)(=O)c4ccc(NCC5CCOCC5)c([N+](=O)[O-])c4)c(Oc4cnc5[nH]ccc5c4)c3)CC2)=C(c2ccc(Cl)cc2)C1 [Venetoclax] (first compound max 10 µM, 7x7, partner max 1 µM) | 0.43 | 0.106 | 0.0364 | -0.0489 | -0.0477 | -0.0347 | -0.0387 | 0.0353 | -0.01 | -0.12 | -0.0132 | -0.122 | -0.0647 | -0.0434 |  | -0.0174 | -0.0286 | -0.034 | -0.0539 | -0.0479 |
| CC(=O)c1c(C)c2cnc(Nc3ccc(N4CCNCC4)cn3)nc2n(C2CCCC2)c1=O [Palbociclib] + Cc1c2c(nn1C)CSCc1cc(n(C)n1)CSc1cc(c3ccccc3c1)OCCCc1c(C(=O)O)n(C)c3c-2c(Cl)ccc13 [AZD5991] (first compound max 10 µM, 7x7, partner max 1 µM) | 0.455 | 0.264 | 0.202 | -0.0367 | -0.0561 | -0.0561 | -0.0326 | -0.0482 | -0.0968 | -0.064 | 0.0299 | -0.035 | -0.161 | -0.0372 |  | -0.0287 | 0.0079 | -0.0349 | -0.0306 | -0.026 |
| CC(=O)c1c(C)c2cnc(Nc3ccc(N4CCNCC4)cn3)nc2n(C2CCCC2)c1=O [Palbociclib] + Cn1cnc2c(F)c(Nc3ccc(Br)cc3Cl)c(C(=O)NOCCO)cc21 [Selumetinib] (first compound max 10 µM, 7x7, partner max 10 µM) | 0.858 | 0.14 | 0.377 | 0.0504 | 0.0013 | -0.0404 | 0.0235 | -0.0061 | 0.0615 | 0.0354 | -0.0334 | -0.0121 | 0.0126 | -0.0509 |  | -0.0052 | 0.0303 | -0.0141 | -0.0397 | -0.0087 |
| C[C@@H](c1ccc2nccn2c1)n1nnc2ncc(-c3cnn(C)c3)nc21 [Savolitinib] + CC1(C)CCC(CN2CCN(c3ccc(C(=O)NS(=O)(=O)c4ccc(NCC5CCOCC5)c([N+](=O)[O-])c4)c(Oc4cnc5[nH]ccc5c4)c3)CC2)=C(c2ccc(Cl)cc2)C1 [Venetoclax] (first compound max 1 µM, 7x7, partner max 1 µM) | 0.0828 | 0.203 | 0.101 | -0.131 | -0.0572 | -0.0536 | -0.0344 | -0.0663 | -0.0299 | -0.0465 | -0.0188 | -0.0491 | -0.0963 | -0.0361 |  | -0.0342 | -0.0576 | -0.0205 | -0.0343 | -0.0766 |
| C[C@@H](c1ccc2nccn2c1)n1nnc2ncc(-c3cnn(C)c3)nc21 [Savolitinib] + Cc1c2c(nn1C)CSCc1cc(n(C)n1)CSc1cc(c3ccccc3c1)OCCCc1c(C(=O)O)n(C)c3c-2c(Cl)ccc13 [AZD5991] (first compound max 1 µM, 7x7, partner max 1 µM) | 0.114 | 0.263 | 0.183 | -0.0558 | -0.0596 | -0.0335 | -0.0384 | 0.021 | -0.0396 | -0.022 | -0.0162 | -0.037 | 0.0086 | -0.0388 |  | -0.04 | -0.0402 | -0.0364 | -0.0354 | -0.0194 |
| Cn1cnc2c(F)c(Nc3ccc(Br)cc3Cl)c(C(=O)NOCCO)cc21 [Selumetinib] + C=CCn1c(=O)c2cnc(Nc3ccc(N4CCN(C)CC4)cc3)nc2n1-c1cccc(C(C)(C)O)n1 [AZD1775] (first compound max 10 µM, partner max 1 µM) | 0.794 | 0.748 | 0.452 | -0.0151 | 0.0098 | -0.0422 | -0.0564 | -0.0433 | 0.0099 | -0.038 | -0.0186 | -0.0579 | -0.0017 | -0.0587 |  | -0.0331 | 0.0024 | -0.0078 | -0.0542 | 0.0014 |
| Cn1cnc2c(F)c(Nc3ccc(Br)cc3Cl)c(C(=O)NOCCO)cc21 [Selumetinib] + CC(C)n1c(=O)n(C)c2cnc3cc(F)c(-c4ccc(OCCCN5CCCCC5)nc4)cc3c21 [AZD1390] (first compound max 10 µM, 7x7, partner max 0.3 µM) | 0.776 | 0.0753 | 0.278 | 0.0022 | 0.0213 | -0.018 | -0.0639 | 0.0258 | -0.0235 | -0.0198 | -0.0083 | -0.0168 | -0.0102 | -0.044 |  | -0.0344 | 0.0011 | -0.0026 | -0.051 | -0.0099 |
| Cn1cnc2c(F)c(Nc3ccc(Br)cc3Cl)c(C(=O)NOCCO)cc21 [Selumetinib] + CCN(CCO)CCCOc1ccc2c(Nc3cc(CC(=O)Nc4cccc(F)c4)[nH]n3)ncnc2c1 [AZD2811] (first compound max 10 µM, 7x7, partner max 1 µM) | 0.878 | 0.717 | 0.415 | -0.0151 | 0.016 | -0.0355 | -0.0508 | 0.0812 | -0.0522 | -0.0556 | -0.0479 | -0.0098 | -0.0353 | -0.0544 |  | -0.0364 | 0.0129 | -0.0263 | -0.0464 | 0.0212 |
| Cn1cnc2c(F)c(Nc3ccc(Br)cc3Cl)c(C(=O)NOCCO)cc21 [Selumetinib] + C[C@@H]1COCCN1C2=NC(=NC(=C2)C3(CC3)[S@](=N)(=O)C)C4=C5C=CNC5=NC=C4 [AZD6738] (first compound max 10 µM, 7x7, partner max 10 µM) | 0.808 | 0.824 | 0.502 | 0.0782 | 0.0599 | 0.0006 | -0.043 | 0.0511 | 0.1 | -0.0316 | -0.0153 | -0.112 | 0.0061 | -0.0495 |  | -0.0364 | 0.0244 | -0.0238 | -0.0393 | 0.047 |
